Reference: patent publication US12605374B2, “Methods for drug screening and compositions useful for the inhibition of cell proliferation and/or cell survival” (The Brigham and Women's Hospital, Inc., priority 2019, dated 2026)
“Also recorded” adds a separate entry of the source.

What was measured:
zebrafish embryos [1] = assay: DA5 dose, time course and washout analysis of developmental delay/arrest; format: in vivo
Text: FIG. 4 (A)-(E): Function of delay/arrest compounds. 7 of the 10 compounds predicted as having a delay/arrest phenotype with the highest confidence caused obvious but divergent delay/arrest effects (A). For chemical structures associated with these Chembridge IDs see Figure S13. (www.chembridge.com). Some arrested development at shield stage, while others caused a slower developmental progression.
We reasoned that this was likely due to differences in the target affinities of the various DA compounds.

Phospholipase C = target: T1, Phospholipase C (Bacillus cereus, UniProt P09598); assay: In vitro Phospholipase C activity assay (EnzChek Direct kit); format: biochemical
T1 construct: purchased Thermo Fisher
T1 sequence (P09598 39-283 limits assumed): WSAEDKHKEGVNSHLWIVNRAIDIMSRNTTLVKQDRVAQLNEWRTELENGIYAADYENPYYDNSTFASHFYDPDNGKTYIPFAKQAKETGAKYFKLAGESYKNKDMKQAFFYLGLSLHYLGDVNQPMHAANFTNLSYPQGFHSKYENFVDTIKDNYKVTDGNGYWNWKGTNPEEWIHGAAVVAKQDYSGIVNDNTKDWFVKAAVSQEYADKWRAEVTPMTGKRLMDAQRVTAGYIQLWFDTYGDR
Method: Phospholipase D, C, and A2 activity were measured in vitro using commercial kits. For Phospholipase D, the Amplex Red Phospholipase D Assay Kit (Thermo Fisher) was used with Phospholipase D (Streptomyces chromofuscus—Enzo Life Sciences) added, and FIPI (4-Fluoro-N-(2-(4-(5-fluoro-1H-indol-1-yl)piperidin-1-yl)ethyl)benzamide, 5-Fluoro-2-indolyl deschlorohalopemide) hydrochloride (Sigma) acting as a positive control. To assay Phospholipase A2 activity, we used an EnzChek Phospholipase A2 Assay kit (Thermo Fisher) with Manoalide (Santa Cruz) as a positive control. To assay Phospholipase C activity, we used an EnzChek Direct Phospholipase C Assay Kit (Thermo Fisher) with D609 (Sigma) as a positive control. Tyrosinase activity was measured using a colorimetric Tyrosinase inhibitor screening kit (BioVision) with PTU as a positive control. For each assay, solutions were prepared in 96-well black clear bottom plates and read using a FLUOstar Omega plate reader at the wavelengths recommended by the respective manufacturers, with each measurement representing the average of at least 4 plate wells.

Phospholipase A2 = Phospholipase A2 (Apis mellifera, UniProt P00630); format: biochemical
Chain of Phospholipase A2 (P00630 34-167 limits assumed): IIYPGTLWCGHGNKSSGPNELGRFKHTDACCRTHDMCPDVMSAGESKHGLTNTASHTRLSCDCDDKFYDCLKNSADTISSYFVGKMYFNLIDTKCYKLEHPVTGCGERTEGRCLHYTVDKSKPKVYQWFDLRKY

zebrafish embryos [2] = assay: Respiration rate analysis (Seahorse XF24 oxygen consumption); format: in vivo; details: embryos from 5 hpf, versus DMSO control
Method: Analysis of embryonic respiration was performed using a Seahorse XF24 analyzer (Agilent). Embryos at 5 hours post fertilization were arrayed in E3 media at 3 per well in a 24-well standard Seahorse plate using an isolating mesh (as in Stackley et al^72). Each plate contained four replicates of each indicated compound of interest, as well as 4 control wells receiving the equivalent DMSO as contained in the indicated compound solution, and 4 wells with no embryos present to act as a baseline for oxygen content of the media. The sample baseline was read for 5 cycles (3 minute mix, 2 minute wait, 5 minute measure), then compounds were introduced in a single 40-cycle injection phase (3 minute mix, 2 minute wait, 5 minute measure). Measurement data were exported using Seahorse software (Agilent) and averaged over 3 experimental days.

[3] = target: T2, recombinant human Topoisomerase I (Homo sapiens, UniProt P11387); assay: Topoisomerase I and DNA binding gel electrophoresis assay; format: biochemical
T2 construct: purchased TopoGEN, Inc. TG2005H
T2 sequence (P11387 1-765): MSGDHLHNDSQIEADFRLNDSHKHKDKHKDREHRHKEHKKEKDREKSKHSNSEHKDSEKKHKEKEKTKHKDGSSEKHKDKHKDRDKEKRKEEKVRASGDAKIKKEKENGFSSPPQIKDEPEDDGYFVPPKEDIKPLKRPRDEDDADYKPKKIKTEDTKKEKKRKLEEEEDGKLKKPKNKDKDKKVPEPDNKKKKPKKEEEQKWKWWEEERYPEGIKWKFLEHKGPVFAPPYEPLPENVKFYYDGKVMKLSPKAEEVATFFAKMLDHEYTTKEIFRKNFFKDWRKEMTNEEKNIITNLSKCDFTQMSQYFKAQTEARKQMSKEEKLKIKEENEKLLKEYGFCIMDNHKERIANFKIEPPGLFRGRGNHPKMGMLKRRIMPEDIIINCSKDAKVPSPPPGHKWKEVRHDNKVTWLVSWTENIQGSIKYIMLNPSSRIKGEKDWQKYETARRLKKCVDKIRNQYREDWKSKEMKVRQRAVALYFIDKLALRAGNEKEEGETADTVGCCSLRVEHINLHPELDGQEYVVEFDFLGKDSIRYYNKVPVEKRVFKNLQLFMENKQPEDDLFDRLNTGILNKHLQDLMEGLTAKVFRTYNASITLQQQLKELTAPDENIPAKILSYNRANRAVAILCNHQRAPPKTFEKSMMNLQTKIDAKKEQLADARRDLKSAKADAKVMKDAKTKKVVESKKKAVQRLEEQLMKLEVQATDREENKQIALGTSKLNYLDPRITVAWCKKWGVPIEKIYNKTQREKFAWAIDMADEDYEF
Method: FIG. 12: Topoisomerase I and DNA binding assay for DA5. The effect of DA5 on Topoisomerase-mediated DNA unwinding is measured through a gel electrophoresis assay (see Methods).
0.5 ug of pHOT-1 supercoiled DNA (TopoGEN, Inc. TG2030-2) was combined with 2× Topoisomerase I assay buffer (50 mM Tris-HCL (ph7.9), 1 mM EDTA, 1 mM DTT, 20% (v/v) glycerol, 50 mM NaCl), nuclease free water and either DMSO vehicle control, m-AMSA positive control (100-1000 uM; TopoGEN, Inc. […] TG2005H) was added to treatments corresponding to lanes 3-12 with 2 ul of dilution buffer (5 mM Tris-HCL (pH 7.9), 1 mM EDTA, 1 mM DTT, 50% (v/v) glycerol, 500 mM NaCl) added to control treatments lacking enzyme (lanes 2, 13 and 14). Reactions were mixed and incubated at 37° C. for 30 minutes. Reactions were terminated with the addition of 20 ul nuclease free water and 50 ul of 1-butanol (water-saturated) followed by vortex and centrifugation at 13,000 rpm for 1 minute. The lower aqueous phase was removed and added to 50 ul chloroform/isoamyl alcohol (24/1) and 50 ul of 2×STEB buffer (40% (w/v) sucrose, 100 mM Tris-HCL (pH 8), 1 mM EDTA, 0.5 mg/ml bromophenol blue) followed by mixing and centrifugation at 13,000 rpm for 1 minute. […] The gel was stained with ethidium bromide for 15 minutes followed by de-staining in distilled water for 10 minutes. Gels were exposed and images acquired using the iBrightFL1000 gel documentation system (Invitrogen).

[4] = test system: Phospholipase D (Streptomyces chromofuscus); assay: In vitro Phospholipase D activity assay (Amplex Red kit); format: biochemical; details: listed as DA5

For `CCC1(CC)CCN(C(=O)c2cc(COc3ccc4ncccc4c3)on2)C1` [ChemBridge ID 65692859, 6-([3-[(3,3-diethylpyrrolidin-1-yl)carbonyl]isoxazol-5-yl]methoxy)quinoline], the “time course analysis: effect in more developed embryos” value (zebrafish embryos [1]; introduced at 24 hours post fertilization and beyond) was “mortality being almost immediate”, the “time course analysis: effect on early development” value (zebrafish embryos [1]; introduced at early stages (<12 h), up to and during gastrulation, listed as DA5) was “arrest up to and during gastrulation immediately after introduction; also recorded: arrested development at any stage of early (<12 h) development” and the developmental phenotype (zebrafish embryos [1]; introduced in zebrafish embryo medium at 5 μM) was “developmental delay”. For the same molecule, the developmental phenotype (zebrafish embryos [1]; introduced in zebrafish embryo medium at 10 μM) was “sphere stage arrest”, the “recovery of embryos after washout” value (zebrafish embryos [1]; washout of compound) was “did not allow embryos to recover” and the “activity of phospholipase C” value (Phospholipase C) was “increased activity”. For the same molecule, the “activity of phospholipase A2” value (Phospholipase A2) was “increased activity”, the “respiration rate (oxygen consumption rate)” value (zebrafish embryos [2]) was “consistent respiration rate” and the “DNA-binding / DNA intercalation / inhibition of Topoisomerase I” value ([3]; DNA intercalation analysis, listed as DA5) was “not due to DNA-binding or inhibition of Topoisomerase (TOPO) I; also recorded: not observed”. The “effect on Topoisomerase-mediated DNA unwinding (gel electrophoresis)” value ([3]; concentrations up to 100 mM (so in the source), versus DMSO) was “no more effect on DNA cleavage than DMSO” and the “activity of phospholipase D” value [4] was “decrease in the activity; also recorded: inhibit phospholipase D activity”.
